The numbers were not newly measured in patent US20180235913A1, “AN ORAL PHARMACEUTICAL FORMULATION COMPRISING SUSTAINED-RELEASE GRANULES CONTAINING TAMSULOSIN HYDROCHLORIDE” (HANMI PHARM. CO., LTD., priority 2015, published 2018), which cites them from elsewhere.

Structures can show the parent of a compound that is named as a salt.

For this data set the following is noted: white crystalline powder.

Take `CCOc1ccccc1OCCN[C@H](C)Cc1ccc(OC)c(S(N)(=O)=O)c1` [Tamsulosin hydrochloride]: the Water solubility entry was “slight water solubility”.
